In patent publication US7612065B2, “Inhibitors of c-JUN N-terminal kinases (JNK)” (priority 2007, dated 2009):
pKi: −log10 of the molar value.

Target: T1, JNK3 (Homo sapiens, UniProt P53779)
T1 construct: One such construct encodes amino acid residues Ser40-Glu402 of JNK3α1 and is preceded by Met and Gly residues; Met-Gly (initiation methionine plus glycine added for the NcoI site); made in house; host or cells: E. coli BL21 (DE3)
Assay: JNK inhibition assay: spectrophotometric coupled-enzyme assay with activated JNK3
Type: biochemical
Conditions: activated JNK3 10 nM, 10 μM ATP, 200 μM EGF receptor peptide, 30° C., competitive inhibition model
Method in brief: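 Activated (doubly phosphorylated, MKK7(DD)-activated) human JNK3, 10 nM, preincubated 10 min at 30 °C with inhibitor in 0.1 M HEPES pH 7.5, 10 mM MgCl2, 200 μM EGF receptor peptide, PK/LDH-coupled. Started with 10 μM ATP; A340 decrease followed at 30 °C. Ki from competitive inhibition model fit.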

T1 sequence (P53779 40-402): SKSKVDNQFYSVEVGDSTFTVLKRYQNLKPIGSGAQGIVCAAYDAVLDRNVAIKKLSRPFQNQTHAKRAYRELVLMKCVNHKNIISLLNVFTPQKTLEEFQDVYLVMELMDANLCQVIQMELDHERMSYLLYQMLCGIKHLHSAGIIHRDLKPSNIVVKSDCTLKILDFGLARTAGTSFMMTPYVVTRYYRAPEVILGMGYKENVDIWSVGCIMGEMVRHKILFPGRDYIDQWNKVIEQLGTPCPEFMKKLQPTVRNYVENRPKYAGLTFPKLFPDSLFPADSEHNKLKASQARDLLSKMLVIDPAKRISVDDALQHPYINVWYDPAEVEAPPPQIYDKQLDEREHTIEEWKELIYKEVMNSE

SMILES	pKi
O=C1/C(=N\O)c2c(-c3cc4ccccc4o3)cccc2N1Cc1cc(F)cc2c1OCOC2 [Compound 206]	≤ 6.00
O=C1/C(=N\O)c2ccc([N+](=O)[O-])cc2N1Cc1cc(F)cc2c1OCOC2 [Compound 207]	> 6.00
Nc1ccc2c(c1)N(Cc1cc(F)cc3c1OCOC3)C(=O)/C2=N\O [Compound 208]	> 6.00
O=C1/C(=N\O)c2ccc(NO)cc2N1Cc1cc(F)cc2c1OCOC2 [Compound 209]	> 6.00
CC(=O)Nc1ccc2c(c1)N(Cc1cc(F)cc3c1OCOC3)C(=O)/C2=N\O [Compound 210]	> 6.00
N#Cc1cccc2c1/C(=N/O)C(=O)N2Cc1cc(F)cc2c1OCOC2 [Compound 212]	≤ 6.00
O=C1/C(=N\O)c2ccc(NS(=O)(=O)c3ccc(Cl)cc3)cc2N1Cc1cc(F)cc2c1OCOC2 [Compound 213]	≤ 6.00
COCC(=O)Nc1ccc2c(c1)N(Cc1cc(F)cc3c1OCOC3)C(=O)/C2=N\O [Compound 214]	> 6.00
COC(=O)c1ccc2c(c1)N(Cc1cc(C)cc3c1OCOC3)C(=O)/C2=N\O [Compound 215]	> 6.00
Cc1cc2c(c(CN3C(=O)/C(=N\O)c4ccc(C(=O)O)cc43)c1)OCOC2 [Compound 216]	> 6.00
N#CCC(=O)Nc1ccc2c(c1)N(Cc1cc(F)cc3c1OCOC3)C(=O)/C2=N\O [Compound 217]	> 6.00
O=C(Nc1ccc2c(c1)N(Cc1cc(F)cc3c1OCOC3)C(=O)/C2=N\O)c1cc(=O)c2ccccc2o1 [Compound 218]	≤ 6.00
O=C(Cc1cccs1)Nc1ccc2c(c1)N(Cc1cc(F)cc3c1OCOC3)C(=O)/C2=N\O [Compound 219]	> 6.00
O=C(Cc1ccccc1F)Nc1ccc2c(c1)N(Cc1cc(F)cc3c1OCOC3)C(=O)/C2=N\O [Compound 220]	> 6.00
O=C(Nc1ccc2c(c1)N(Cc1cc(F)cc3c1OCOC3)C(=O)/C2=N\O)c1cc2ccccc2o1 [Compound 221]	> 6.00
O=C(Nc1ccc2c(c1)N(Cc1cc(F)cc3c1OCOC3)C(=O)/C2=N\O)c1csc(C2COc3ccccc3O2)n1 (stereo not shown) [Compound 222]	≤ 6.00
CN(C)CC(=O)Nc1ccc2c(c1)N(Cc1cc(F)cc3c1OCOC3)C(=O)/C2=N\O [Compound 223]	≤ 6.00
CCCC(=O)Nc1ccc2c(c1)N(Cc1cc(F)cc3c1OCOC3)C(=O)/C2=N\O [Compound 224]	> 6.00
O=C(Nc1ccc2c(c1)N(Cc1cc(F)cc3c1OCOC3)C(=O)/C2=N\O)C1CCCC1 [Compound 225]	> 6.00
O=C(Nc1ccc2c(c1)N(Cc1cc(F)cc3c1OCOC3)C(=O)/C2=N\O)c1ccco1 [Compound 226]	> 6.00
O=C(NCc1ccc(F)cc1)c1ccc2c(c1)N(Cc1cc(F)cc3c1OCOC3)C(=O)/C2=N\O [Compound 227]	> 6.00
O=C(c1ccc2c(c1)N(Cc1cc(F)cc3c1OCOC3)C(=O)/C2=N\O)N1CCOCC1 [Compound 228]	≤ 6.00
O=C(Nc1cccc(F)c1)c1ccc2c(c1)N(Cc1cc(F)cc3c1OCOC3)C(=O)/C2=N\O [Compound 229]	≤ 6.00
COc1cc(CNC(=O)c2ccc3c(c2)N(Cc2cc(F)cc4c2OCOC4)C(=O)/C3=N\O)cc(OC)c1 [Compound 230]	≤ 6.00
COc1ccccc1CNC(=O)c1ccc2c(c1)N(Cc1cc(F)cc3c1OCOC3)C(=O)/C2=N\O [Compound 231]	≤ 6.00

SMILES	pKi
COc1ccc(CCNC(=O)c2ccc3c(c2)N(Cc2cc(F)cc4c2OCOC4)C(=O)/C3=N\O)cc1OC [Compound 232]	≤ 6.00
Cc1ccccc1CNC(=O)c1ccc2c(c1)N(Cc1cc(F)cc3c1OCOC3)C(=O)/C2=N\O [Compound 233]	≤ 6.00
O=C(NCc1cccc(Cl)c1)c1ccc2c(c1)N(Cc1cc(F)cc3c1OCOC3)C(=O)/C2=N\O [Compound 234]	≤ 6.00
O=C(NCc1cc(Cl)ccc1Cl)c1ccc2c(c1)N(Cc1cc(F)cc3c1OCOC3)C(=O)/C2=N\O [Compound 236]	≤ 6.00
O=C(NCc1cccnc1)c1ccc2c(c1)N(Cc1cc(F)cc3c1OCOC3)C(=O)/C2=N\O [Compound 237]	≤ 6.00
O=C(NCc1ccncc1)c1ccc2c(c1)N(Cc1cc(F)cc3c1OCOC3)C(=O)/C2=N\O [Compound 238]	≤ 6.00
O=C(NCCc1ccccn1)c1ccc2c(c1)N(Cc1cc(F)cc3c1OCOC3)C(=O)/C2=N\O [Compound 239]	≤ 6.00
O=C(NCCN1CCOCC1)c1ccc2c(c1)N(Cc1cc(F)cc3c1OCOC3)C(=O)/C2=N\O [Compound 240]	≤ 6.00
CC(C)(C)NC(=O)c1ccc2c(c1)N(Cc1cc(F)cc3c1OCOC3)C(=O)/C2=N\O [Compound 241]	≤ 6.00
CCN(Cc1ccccc1)C(=O)c1ccc2c(c1)N(Cc1cc(F)cc3c1OCOC3)C(=O)/C2=N\O [Compound 242]	≤ 6.00
CCC(NC(=O)c1ccc2c(c1)N(Cc1cc(F)cc3c1OCOC3)C(=O)/C2=N\O)c1ccccc1 (stereo not shown) [Compound 243]	≤ 6.00
COC(=O)c1cccc2c1/C(=N/O)C(=O)N2Cc1cc(F)cc2c1OCOC2 [Compound 244]	≤ 6.00
O=C(O)c1cccc2c1/C(=N/O)C(=O)N2Cc1cc(F)cc2c1OCOC2 [Compound 245]	≤ 6.00
O=C1/C(=N\O)c2c(C#Cc3ccccc3)cccc2N1Cc1cc(F)cc2c1OCOC2 [Compound 246]	≤ 6.00
O=C(Nc1ccc2c(c1)N(Cc1cc(F)cc3c1OCOC3)C(=O)/C2=N\O)c1ccccc1 [Compound 247]	> 6.00
O=C(Nc1ccc2c(c1)N(Cc1cc(F)cc3c1OCOC3)C(=O)/C2=N\O)c1ccc(F)cc1 [Compound 248]	> 6.00
O=C(Nc1ccc2c(c1)N(Cc1cc(F)cc3c1OCOC3)C(=O)/C2=N\O)c1ccc(F)cc1F [Compound 249]	> 6.00
COc1cccc(C(=O)Nc2ccc3c(c2)N(Cc2cc(F)cc4c2OCOC4)C(=O)/C3=N\O)c1 [Compound 250]	> 6.00
O=C(Nc1ccc2c(c1)N(Cc1cc(F)cc3c1OCOC3)C(=O)/C2=N\O)c1cccc(Cl)c1Cl [Compound 251]	> 6.00
O=C(Nc1ccc2c(c1)N(Cc1cc(F)cc3c1OCOC3)C(=O)/C2=N\O)c1ccc(Cl)cc1Cl [Compound 252]	≤ 6.00
O=C(Nc1ccc2c(c1)N(Cc1cc(F)cc3c1OCOC3)C(=O)/C2=N\O)c1ccc(Cl)c(Cl)c1 [Compound 253]	≤ 6.00
O=C(Nc1ccc2c(c1)N(Cc1cc(F)cc3c1OCOC3)C(=O)/C2=N\O)c1cccnc1 [Compound 254]	> 6.00
O=C(Nc1ccc2c(c1)N(Cc1cc(F)cc3c1OCOC3)C(=O)/C2=N\O)c1cccc(Cl)c1 [Compound 255]	> 6.00
COc1ccccc1C(=O)Nc1ccc2c(c1)N(Cc1cc(F)cc3c1OCOC3)C(=O)/C2=N\O [Compound 256]	> 6.00
O=C(Nc1ccc2c(c1)N(Cc1cc(F)cc3c1OCOC3)C(=O)/C2=N\O)N1CCOCC1 [Compound 257]	≤ 6.00

SMILES	pKi
CCOC(=O)C(=O)Nc1ccc2c(c1)N(Cc1cc(F)cc3c1OCOC3)C(=O)/C2=N\O [Compound 258]	> 6.00
COC(=O)CC(=O)Nc1ccc2c(c1)N(Cc1cc(F)cc3c1OCOC3)C(=O)/C2=N\O [Compound 259]	> 6.00
O=C(Nc1ccc2c(c1)N(Cc1cc(F)cc3c1OCOC3)C(=O)/C2=N\O)c1ccc([N+](=O)[O-])cc1 [Compound 260]	> 6.00
CC(C)C(=O)Nc1ccc2c(c1)N(Cc1cc(F)cc3c1OCOC3)C(=O)/C2=N\O [Compound 261]	> 6.00
CS(=O)(=O)Nc1ccc2c(c1)N(Cc1cc(F)cc3c1OCOC3)C(=O)/C2=N\O [Compound 262]	> 6.00
CCS(=O)(=O)Nc1ccc2c(c1)N(Cc1cc(F)cc3c1OCOC3)C(=O)/C2=N\O [Compound 263]	> 6.00
CC(C)S(=O)(=O)Nc1ccc2c(c1)N(Cc1cc(F)cc3c1OCOC3)C(=O)/C2=N\O [Compound 264]	≤ 6.00
COc1ccc(S(=O)(=O)Nc2ccc3c(c2)N(Cc2cc(F)cc4c2OCOC4)C(=O)/C3=N\O)cc1 [Compound 265]	≤ 6.00
Cc1ccccc1C(=O)c1ccc2c(c1)/C(=N\O)C(=O)N2Cc1cc(F)cc2c1OCOC2 [Compound 268]	> 6.00
O=C(Nc1ccc2c(c1)N(Cc1cc(F)cc3c1OCOC3)C(=O)/C2=N\O)N1CCOCC1 [Compound 269]	> 6.00
O=C1/C(=N\O)c2cc(Br)ccc2N1Cc1cc(F)cc2c1OCOC2 [Compound 278]	> 6.00
CC(=O)Nc1cccc(-c2ccc3c(c2)/C(=N/O)C(=O)N3Cc2cc(F)cc3c2OCOC3)c1 [Compound 279]	≤ 6.00
Nc1cccc(-c2ccc3c(c2)/C(=N/O)C(=O)N3Cc2cc(F)cc3c2OCOC3)c1 [Compound 280]	≤ 6.00
O=C1/C(=N\O)c2cc(-c3cccnc3)ccc2N1Cc1cc(F)cc2c1OCOC2 [Compound 281]	≤ 6.00
Nc1cccc2c1/C(=N/O)C(=O)N2Cc1cc(F)cc2c1OCOC2 [Compound 282]	≤ 6.00
O=C1/C(=N\O)c2cc(-c3ccc(CO)cc3)ccc2N1Cc1cc(F)cc2c1OCOC2 [Compound 283]	≤ 6.00
O=C1/C(=N\O)c2cc([N+](=O)[O-])ccc2N1Cc1cc(F)cc2c1OCOC2 [Compound 284]	≤ 6.00
Nc1ccc2c(c1)/C(=N/O)C(=O)N2Cc1cc(F)cc2c1OCOC2 [Compound 285]	≤ 6.00
O=C1/C(=N\O)c2c(F)cc(F)cc2N1Cc1cc(F)cc2c1OCOC2 [Compound 286]	> 6.00
CC(C)CNC(=O)c1ccc2c(c1)N(Cc1cc(F)cc3c1OCOC3)C(=O)/C2=N\O [Compound 287]	≤ 6.00
COC(=O)CNC(=O)c1ccc2c(c1)N(Cc1cc(F)cc3c1OCOC3)C(=O)/C2=N\O [Compound 288]	≤ 6.00
O=C(NCCN1CCCC1)c1ccc2c(c1)N(Cc1cc(F)cc3c1OCOC3)C(=O)/C2=N\O [Compound 289]	≤ 6.00
O=C(NCC1CCCO1)c1ccc2c(c1)N(Cc1cc(F)cc3c1OCOC3)C(=O)/C2=N\O (stereo not shown) [Compound 290]	≤ 6.00
